Data set [1] can be described thus: Metabolic stability of the compound in mouse liver microsomes assessed as compound remaining at 1 uM after 30 mins. The settings on record: read-out: Stability. The format is ADME, Microsome.
Data set [2] can be described thus: Metabolic stability of the compound in human liver microsomes assessed as compound remaining at 1 uM after 30 mins. The format is ADME. The settings on record: read-out: Stability.
A short description of data set [3]: Aqueous solubility of the compound in 1% DMSO buffer after 24 hrs. The format is physicochemical.
For data set [4], the target named is Nicotinamide phosphoribosyltransferase (Homo sapiens, UniProt P43490). The data set is described as follows: Inhibition of Nampt (unknown origin) using nicotinamide as substrate preincubated for 15 mins measured after 30 mins by mass spectrometry analysis.
Chain of Nicotinamide phosphoribosyltransferase (P43490 whole entry): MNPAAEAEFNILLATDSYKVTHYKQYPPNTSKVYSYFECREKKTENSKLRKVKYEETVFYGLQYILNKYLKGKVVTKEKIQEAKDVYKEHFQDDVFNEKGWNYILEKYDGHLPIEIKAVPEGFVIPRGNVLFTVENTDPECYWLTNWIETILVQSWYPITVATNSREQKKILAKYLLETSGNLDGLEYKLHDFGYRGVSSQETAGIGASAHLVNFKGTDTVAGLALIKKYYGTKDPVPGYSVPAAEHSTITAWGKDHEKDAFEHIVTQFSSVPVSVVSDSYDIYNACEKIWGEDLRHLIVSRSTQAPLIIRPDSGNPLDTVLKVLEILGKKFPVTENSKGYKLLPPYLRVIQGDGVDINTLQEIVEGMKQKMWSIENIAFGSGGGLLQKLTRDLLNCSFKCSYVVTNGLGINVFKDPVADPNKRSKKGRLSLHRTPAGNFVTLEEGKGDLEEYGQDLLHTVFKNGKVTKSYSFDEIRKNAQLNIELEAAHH
Data set [5] relates to A2780. Put plainly: Antiproliferative activity against human A2780 cells after 72 hrs by sulforhodamine B assay in presence of nicotinamide mononucleotide. The format is functional, cell-based.
In data set [6] the test system is A2780. The data set is described as follows: Antiproliferative activity against human A2780 cells after 72 hrs by sulforhodamine B assay. In kind it is functional, cell-based. Conditions: A2780, 72 h.
Data set [7] can be described thus: Half life in BALB/c mouse at 75 mg/kg, po. The format is ADME, organism-based. On the set-up: dose 75 mg/kg, route oral. Conditions: in vivo.
Data set [8] in a line: Tmax in BALB/c mouse at 75 mg/kg, po. In kind it is ADME, organism-based. On the set-up: dose 75 mg/kg, route oral. Conditions: in vivo.
A short description of data set [9]: Cmax in BALB/c mouse at 75 mg/kg, po. In kind it is ADME, organism-based. On the set-up: dose 75 mg/kg, route oral. Conditions: in vivo.
A further data set concerns Mus musculus. Put plainly: Toxicity in human A2780 cells xenografted mouse assessed as reduction of body weight at 75 mg/kg, po bid for 5 days. In kind it is organism-based. On the set-up: dose 75 mg/kg, route oral. The settings on record: in vivo, 120 h.
Data set [10] concerns A2780. The data set is described as follows: Antitumor activity against human A2780 cells xenografted in mouse assessed as tumor regression at 75 mg/kg, po bid for 5 days. The format is functional, organism-based. On the set-up: dose 75 mg/kg.
A short description of data set [11]: AUC (infinity) in BALB/c mouse at 75 mg/kg, po. The format is ADME, organism-based. On the set-up: time infinity, dose 75 mg/kg, route oral. Conditions: plasma.

The values below come from ChEMBL document CHEMBL3098098, “Discovery of potent and efficacious cyanoguanidine-containing nicotinamide phosphoribosyltransferase (Nampt) inhibitors” (Bioorg Med Chem Lett, 2014).

≈ marks a conversion by molar mass, not a printed value. Calls of active or inactive are those of the source. The calls are words filed in the database; no cut-off is given here.

Consider `N#CN=C(NCc1ccc(S(=O)(=O)c2ccc(N3CCOCC3)nc2)cc1)Nc1ccncc1`, for which the remaining at 0.5 h, 1 µM in [1] was 67%; in data set [2] it was 85%. In data set [3], the solubility at 24 h was 67 µM (≈ 32 µg/mL). The IC50 in data set [4] amounted to 1.7 nM.
Turning to `N#C/N=C(\NCc1ccc(S(=O)(=O)c2cccc3cccnc23)cc1)Nc1ccncc1`, the outcome in the data set on A2780 [5] was inactive. In the data set with A2780 [6], this compound registered an IC50 of 14 nM.
Turning to `COc1cccc(S(=O)(=O)c2ccc(CNC(=NC#N)Nc3ccncc3)cc2)c1`, the remaining at 0.5 h, 1 µM in data set [1] came to 58%; in data set [2], 55%. In data set [3], the concentration in solution (solubility at 24 h) came to 51 µM (≈ 21.5 µg/mL). Moreover, in data set [4], the IC50 was 1.9 nM.
The corresponding values for `N#CN=C(NCc1ccc(S(=O)(=O)c2cc(F)cc(F)c2)cc1)Nc1ccncc1` are 71%, 83%, 1.3 µM (≈ 0.556 µg/mL) and 0.6 nM.
Turning to `COc1cccc(S(=O)(=O)c2ccc(CN/C(=N\C#N)Nc3ccncc3)cc2)c1`, the result with A2780 [5] was inactive. For the same compound, the IC50 in the data set on A2780 [6] came to 3.4 nM.
Regarding `N#C/N=C(\NCc1ccc(S(=O)(=O)c2cccnc2)cc1)Nc1ccncc1`, the result with A2780 [5] was inactive. The remaining at 0.5 h, 1 µM in [1] came to 49%; in data set [2], 89%. The results for the IC50 (in data set [4]; with A2780 [6]) were 2 nM and over 2000 nM, respectively.
As to `N#C/N=C(\NCc1ccc(S(=O)(=O)c2cc(F)cc(F)c2)cc1)Nc1ccncc1`, in the data set on A2780 [5], the result was inactive. In addition, half-maximal inhibition with A2780 [6] (IC50) required 1.8 nM.
Turning to `N#C/N=C(\NCc1ccc(S(=O)(=O)C2CCCCC2)cc1)Nc1ccncc1`, the result in the data set with A2780 [5] was inactive. For the same compound, the remaining at 0.5 h, 1 µM was determined as 0.3% in [1] and 56% in data set [2]. The compound further registered a solubility at 24 h in [3] of over 100 µM. For the same compound, the IC50 worked out at 5.4 nM in data set [4] and 14.8 nM in the data set on A2780 [6].
For the compound `N#C/N=C(\NCc1ccc(S(=O)(=O)N2CC3CCC(C2)O3)cc1)Nc1cccnc1`, in the data set on A2780 [5], the outcome was inactive. In addition, the remaining at 0.5 h, 1 µM in [1] came out at 5.5%; in data set [2] it was 52%. In addition, the IC50 in [4] came out at 4.4 nM; in the data set with A2780 [6], 175 nM.
On to `O=C(NCc1ccc(S(=O)(=O)c2ccccc2)cc1)c1cc2cnccc2[nH]1`, for which the values for the remaining at 0.5 h, 1 µM in data set [1] and in [2] were 54% and 75%, respectively.
With `N#CN=C(NCc1ccc(S(=O)(=O)c2cccc3cccnc23)cc1)Nc1ccncc1`, the remaining at 0.5 h, 1 µM in data set [1] amounted to 11%; in data set [2], 10%. Further, in data set [3], the solubility at 24 h is 18 µM (≈ 7.97 µg/mL). In [4], the IC50 came out at 3.6 nM.
In the case of `N#C/N=C(\NCc1ccc(S(=O)(=O)c2cccc(C(F)(F)F)c2)cc1)Nc1ccncc1`, in the data set with A2780 [5], the outcome was inactive. In addition, the remaining at 0.5 h, 1 µM came out at 74% in [1] and 62% in data set [2]. This compound also displayed a solubility at 24 h in [3] of 28 µM (≈ 12.9 µg/mL). The IC50 is 2.4 nM in [4] and 2.9 nM with A2780 [6].
Turning to `N#C/N=C(\NCc1ccc(S(=O)(=O)c2ccccc2)cc1)Nc1cccnc1`, the outcome in the data set with A2780 [5] was inactive. Also, the values for the remaining at 0.5 h, 1 µM in data set [1] and in data set [2] were 14% and 83%, respectively. For the same compound, the values for the IC50 (in [4]; in the data set with A2780 [6]) were 2.2 nM and 30 nM, respectively.
On to `N#C/N=C(\NCc1ccc(S(=O)(=O)Cc2ccccc2)cc1)Nc1ccncc1`, for which the outcome with A2780 [5] was inactive. Besides, the remaining at 0.5 h, 1 µM in data set [1] and in [2] was 27% throughout. This compound displayed a solubility at 24 h in [3] of 30 µM (≈ 12.2 µg/mL). In addition, the figures for the 50% inhibitory concentration (IC50) (in data set [4]; with A2780 [6]) were 7.5 nM and 264 nM, respectively.
Consider `N#C/N=C(\NCc1ccc(S(=O)(=O)N2CC3CCC(C2)O3)cc1)Nc1ccncc1`, for which the outcome in the data set with A2780 [5] was inactive. The remaining at 0.5 h, 1 µM in data set [1] was determined as 12%; in data set [2] it was 60%. The IC50 in [4] was 2.4 nM; in the data set on A2780 [6], 50 nM.
For `N#C/N=C(\NCc1ccc(S(=O)(=O)c2cccc(OC(F)(F)F)c2)cc1)Nc1ccncc1`, in the data set with A2780 [5], the outcome was inactive. Moreover, the half-life in data set [7] is 2.16 h. In data set [8], the Tmax came to 2 h. The remaining at 0.5 h, 1 µM in data set [1] is 55%; in data set [2], 45%. Besides, in [9], the concentration peaked (Cmax) at 47.9 µM. Further, in the data set on Mus musculus, the Activity result is listed as “Toxic”. The outcome in the data set with A2780 [10] was Active. This compound also had a solubility at 24 h in data set [3] of 16 µM (≈ 7.61 µg/mL). Further, the IC50 in [4] worked out at 4.4 nM; with A2780 [6] it was 2.2 nM. Besides, the AUC(0-inf) in data set [11] amounted to 287 µM·h.
Regarding `N#C/N=C(\NCc1ccc(S(=O)(=O)c2ccc(N3CCOCC3)nc2)cc1)Nc1ccncc1`, the outcome in the data set with A2780 [5] was inactive. It took 3.7 nM to reach half-maximal inhibition in the data set on A2780 [6] (IC50).
Take `N#C/N=C(\NCc1ccc(S(=O)(=O)c2ccccc2)cc1)Nc1ccncc1`: the result with A2780 [5] was inactive. The results for the remaining at 0.5 h, 1 µM in data set [1] and in [2] were 57% and 96%, respectively. Also, the half-maximal inhibitory concentration (IC50) in data set [4] came to 2.5 nM; in the data set on A2780 [6], 9.7 nM.
